According to publication PMC12087874, “Biaryl Phosphates and Phosphonates as Selective Inhibitors of the Transcription Factor STAT4” (Angewandte Chemie (International Ed. in English), 2025):
“Also recorded” adds a separate entry of the source.

Molecular target: T1, STAT4 (Homo sapiens, UniProt Q14765)
T1 sequence (Q14765 1-748): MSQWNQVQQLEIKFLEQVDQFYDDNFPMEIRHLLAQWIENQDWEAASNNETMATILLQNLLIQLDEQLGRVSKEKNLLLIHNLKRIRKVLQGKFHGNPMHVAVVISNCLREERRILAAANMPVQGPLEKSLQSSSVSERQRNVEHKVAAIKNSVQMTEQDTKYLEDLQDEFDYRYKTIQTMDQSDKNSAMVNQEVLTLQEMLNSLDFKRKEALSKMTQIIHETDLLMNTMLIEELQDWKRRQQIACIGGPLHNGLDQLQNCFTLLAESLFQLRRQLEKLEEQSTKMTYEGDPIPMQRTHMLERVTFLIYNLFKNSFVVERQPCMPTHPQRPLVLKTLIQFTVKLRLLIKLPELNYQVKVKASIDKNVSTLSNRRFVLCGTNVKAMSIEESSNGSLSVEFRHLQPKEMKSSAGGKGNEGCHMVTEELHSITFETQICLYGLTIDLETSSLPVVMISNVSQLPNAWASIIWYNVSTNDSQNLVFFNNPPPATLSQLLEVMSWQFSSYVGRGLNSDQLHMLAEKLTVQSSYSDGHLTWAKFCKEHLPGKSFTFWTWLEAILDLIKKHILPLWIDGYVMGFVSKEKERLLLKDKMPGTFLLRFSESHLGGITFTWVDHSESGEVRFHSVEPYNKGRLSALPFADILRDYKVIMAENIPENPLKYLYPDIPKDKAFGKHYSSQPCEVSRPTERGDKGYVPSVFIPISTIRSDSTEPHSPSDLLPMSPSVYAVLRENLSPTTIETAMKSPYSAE
Assay: Competitive fluorescence polarization (FP) assay, STAT4 SH2 domain
Format: binding
Settings: FP assay; for Ki: tracer 5-carboxyfluorescein-GpYLPQNID-OH, Ki derived from IC50, read-out: STAT4 K i; for Ki / IC50: mean ± SD, n = 3
Method: Fluorescence polarization assays
Competitive fluorescence polarization assays, which measure the abilities of test compounds (dissolved in DMSO) to displace a fluorescent-labeled peptide from the SH2 domain of a STAT protein, were carried out essentially as described. Proteins were used at the following final concentrations: 23 nM or 28 nM for STAT4; between 56 nM and 91 nM for STAT1; 107 nM or 110 nM for STAT3; between 131 nM and 177 nM for STAT5a; between 62 nM and 85 nM for STAT5b; and 101 nM or 106 nM for STAT6. These concentrations represent the approximate […]
dissociation constant for peptide binding of the respective protein batches used in the assays.
The following peptides were used: 5-carboxyfluorescein-GpYLPQNID-OH for STAT4; 5-carboxyfluorescein-GpYDKPHVL for STAT1; 5-carboxyfluorescein-GpYLPQTV-NH2 for STAT3; 5-carboxyfluorescein-GpYLVLDKW for STAT5a/b, and 5-carboxyfluorescein- […]
Gp[…]-OH for STAT6. All peptides were used at a final concentration of 10 nM. The buffer consisted of 10 mM Tris (pH 8.0), 50 mM NaCl, 1 mM EDTA, 1 mM DTT, 0 .1 % Nonidet P-40 substitute, and 2 % DMSO. After incubation of protein and test compound for 1 h at room temperature, the fluorescent -labeled peptide was added. Samples were transferred to 384 - well microtiter plates and fluorescence polarization was read after an additional 60 min of incubation time. Measurements were performed in triplicate. Percent binding was calculated based on a logarithmic curve fit using OriginPro 8G software. IC 50 values were converted to Ki-values via the published equation[3] using the corresponding Excel spread sheet […]
https://websites.umich.edu/~shaomengwanglab/software/calc_ki/index.html .
Error bars represent standard deviations. Ligand efficiencies (LE) were calculated by the formula LE = -1,37 x log Ki / number of non-hydrogen atoms.[4] […]

SMILES: O=C(O)c1ccccc1-c1ccc(OP(=O)(O)O)cc1 [Compound 6b]
- Ki: 7.8 ± 0.5 µM
- IC50: 17 ± 1 µM

SMILES: Cc1cscc1-c1ccc(C(F)(F)P(=O)(O)O)c(F)c1 [Compound 8m]
- Ki: 8.9 ± 0.7 µM
- IC50: 19 ± 1 µM

SMILES: COC(=O)c1ccccc1-c1ccc(OP(=O)(O)O)cc1 [Compound 6a]
- Ki: 9.1 ± 0.8 µM
- IC50: 18 ± 2 µM

SMILES: O=P(O)(O)C(F)(F)c1ccc(-c2ccoc2)cc1F [Compound 8b]
- Ki: 39 ± 1 µM
- IC50: 83 ± 2 µM

SMILES: COc1cc(OC)cc(-c2ccc(OP(=O)(O)O)cc2)c1 [Compound 6e]
- Ki: 1.9 ± 0.1 µM
- IC50: 3.9 ± 0.2 µM

SMILES: O=P(O)(O)Cc1ccc(-c2ccc3ccccc3c2)cc1F [Compound 7]
- inhibition at 100 µM (100 µM, the highest concentration tested): 33 ± 4%

SMILES: CC(=O)NCc1ccccc1-c1ccc(OP(=O)(O)O)cc1 [Compound 6d]
- Ki: 6.2 ± 0.4 µM
- IC50: 12 ± 1 µM

SMILES: COC(=O)c1cc(-c2ccc(C(F)(F)P(=O)(O)O)c(F)c2)cs1 [Compound 8f]
- Ki: 4.4 ± 0.1 µM
- IC50: 9.4 ± 0.2 µM

SMILES: O=P(O)(O)C(F)(F)c1ccc(-c2cccs2)cc1F [Compound 8d]
- Ki: 3.6 ± 0.2 µM
- IC50: 7.7 ± 0.4 µM

SMILES: O=P(O)(O)C(F)(F)c1ccc(-c2csc(Cl)c2)cc1F [Compound 8i]
- Ki: 5.5 ± 0.7 µM
- IC50: 12 ± 2 µM

SMILES: O=P(O)(O)C(F)(F)c1ccc(-c2ccsc2)cc1F [Compound 8e]
- Ki: 2.8 ± 0.3 µM
- IC50: 6 ± 0.6 µM

SMILES: COc1cc(-c2ccccc2)ccc1OP(=O)(O)O [Compound 6l]
- Ki: 22 ± 2 µM
- IC50: 47 ± 5 µM

SMILES: O=P(O)(O)C(F)(F)c1ccc(-c2ccsc2Cl)cc1F [Compound 8j]
- Ki: 7.3 ± 0.6 µM
- IC50: 15 ± 1 µM

SMILES: N#Cc1ccccc1-c1ccc(OP(=O)(O)O)cc1 [Compound 6c]
- Ki: 2.7 ± 0.3 µM
- IC50: 5.2 ± 0.6 µM

SMILES: Cc1sccc1-c1ccc(C(F)(F)P(=O)(O)O)c(F)c1 [Compound 8l]
- Ki: 8.7 ± 0.9 µM
- IC50: 18 ± 2 µM

SMILES: Cn1cc(-c2ccc(C(F)(F)P(=O)(O)O)c(F)c2)cn1 [Compound 8c]
- Ki: 8 ± 0.7 µM
- IC50: 15 ± 1 µM

SMILES: O=P(O)(O)Oc1ccc(-c2cccc3ccccc23)cc1 [Compound 6f]
- Ki: 0.84 ± 0.08 µM
- IC50: 1.8 ± 0.2 µM

SMILES: NC(=O)c1cc(-c2ccc(C(F)(F)P(=O)(O)O)c(F)c2)cs1 [Compound 8g]
- Ki: 11 ± 2 µM
- IC50: 24 ± 4 µM

SMILES: Oc1ccc(-c2ccc3ccccc3c2)cc1F [Compound 4m]
- STAT4 inhibition at 200 µM (200 µM): lack of activity; also recorded: no inhibition at 200 µM

SMILES: O=P(O)(O)Oc1ccc(-c2ccccc2)cc1Cl [Compound 6k]
- Ki: 3.3 ± 1 µM
- IC50: 7 ± 2 µM

SMILES: CC(=O)c1cc(-c2ccc(C(F)(F)P(=O)(O)O)c(F)c2)cs1 [Compound 8h]
- Ki: 7.1 ± 0.6 µM
- IC50: 15 ± 1 µM

SMILES: O=P(O)(O)Oc1c(F)cc(-c2ccccc2)cc1F [Compound 6j]
- Ki: 2 ± 0.1 µM
- IC50: 4.3 ± 0.3 µM

SMILES: O=P(O)(O)Oc1ccc(-c2ccccc2)c(F)c1 [Compound 6i]
- Ki: 3.8 ± 0.1 µM
- IC50: 8.1 ± 0.1 µM
